The conditions of series [1]: cited from earlier work.
Series [2] can be described thus: characteristic curvature (Cc), HLD framework. The series is classed as physicochemical. Conditions: obtained following procedure of Nouraei et al. (WO 2022/140843).

For the compound `C=C(C)[C@@H]1CCC(C)=C[C@H]1c1c(O)cc(CCCCC)cc1O` [CBD, cannabidiol], in series [1], the water solubility is given as 0.0013 wt %.
As to `C=CCc1ccc(O)c(OC)c1` [Eugenol, eugenol], the water solubility in series [1] was 0.14 wt %.
For `CCCCCc1cc(O)c2c(c1)OC(C)(C)[C@@H]1CCC(C)=C[C@@H]21` [THC, tetrahydrocannabinol], the “characteristic curvature (Cc)” value in series [2] was “+2.7”.
